{"source": "ChEMBL document CHEMBL4808193", "about": "“[11]-Chaetoglobosins from Pseudeurotium bakeri Induce G2/M Cell Cycle Arrest and Apoptosis in Human Cancer Cells” (J Nat Prod, 2021)", "key": {"A549": {"test_system": "A549", "experiment": "Cytotoxicity against human A549 cells assessed as reduction in cell viability by MTT assay", "format": "functional, cell-based"}, "A-427 [1]": {"test_system": "A-427", "experiment": "Cytotoxicity against human A-427 cells assessed as reduction in cell viability by MTT assay", "format": "functional, cell-based"}, "HCT-116": {"test_system": "HCT-116", "experiment": "Cytotoxicity against human HCT-116 cells assessed as reduction in cell viability by MTT assay", "format": "functional, cell-based"}, "HT-29": {"test_system": "HT-29", "experiment": "Cytotoxicity against human HT-29 cells assessed as reduction in cell viability by MTT assay", "format": "functional, cell-based"}, "MCF7 [2]": {"test_system": "MCF7", "experiment": "Cytotoxicity against human MCF7 cells assessed as reduction in cell viability by MTT assay", "format": "functional, cell-based"}, "HeLa": {"test_system": "HeLa", "experiment": "Cytotoxicity against human HeLa cells assessed as reduction in cell viability by MTT assay", "format": "functional, cell-based"}, "HepG2": {"test_system": "HepG2", "experiment": "Cytotoxicity against human HepG2 cells assessed as reduction in cell viability by MTT assay", "format": "functional, cell-based"}, "L02": {"test_system": "L02", "experiment": "Cytotoxicity against human L02 cells assessed as reduction in cell viability by MTT assay", "format": "cell-based"}, "A-427 [3]": {"test_system": "A-427", "experiment": "Induction of apoptosis in human A-427 cells assessed as late apoptotic cells at 6 uM measured after 24 hrs by Annexin V-FITC/propidium iodide staining based flow cytometric analysis (reference value: 1.70%)", "format": "functional"}, "A-427 [4]": {"test_system": "A-427", "experiment": "Induction of apoptosis in human A-427 cells assessed as late apoptotic cells at 4 uM measured after 24 hrs by Annexin V-FITC/propidium iodide staining based flow cytometric analysis (reference value: 1.70%)", "format": "functional"}, "A-427 [5]": {"test_system": "A-427", "experiment": "Induction of apoptosis in human A-427 cells assessed as late apoptotic cells at 2 uM measured after 24 hrs by Annexin V-FITC/propidium iodide staining based flow cytometric analysis (reference value: 1.70%)", "format": "functional"}, "A-427 [6]": {"test_system": "A-427", "experiment": "Induction of apoptosis in human A-427 cells assessed as early apoptotic cells at 6 uM measured after 24 hrs by Annexin V-FITC/propidium iodide staining based flow cytometric analysis (reference value: 4.50%)", "format": "functional"}, "A-427 [7]": {"test_system": "A-427", "experiment": "Induction of apoptosis in human A-427 cells assessed as early apoptotic cells at 4 uM measured after 24 hrs by Annexin V-FITC/propidium iodide staining based flow cytometric analysis (reference value: 4.50%)", "format": "functional"}, "A-427 [8]": {"test_system": "A-427", "experiment": "Induction of apoptosis in human A-427 cells assessed as early apoptotic cells at 2 uM measured after 24 hrs by Annexin V-FITC/propidium iodide staining based flow cytometric analysis (reference value: 4.50%)", "format": "functional"}, "MCF7 [9]": {"test_system": "MCF7", "experiment": "Induction of apoptosis in human MCF7 cells assessed as late apoptotic cells at 15 uM measured after 24 hrs by Annexin V-FITC/propidium iodide staining based flow cytometric analysis (reference value: 0.76%)", "format": "functional"}, "MCF7 [10]": {"test_system": "MCF7", "experiment": "Induction of apoptosis in human MCF7 cells assessed as late apoptotic cells at 10 uM measured after 24 hrs by Annexin V-FITC/propidium iodide staining based flow cytometric analysis (reference value: 0.76%)", "format": "functional"}, "MCF7 [11]": {"test_system": "MCF7", "experiment": "Induction of apoptosis in human MCF7 cells assessed as late apoptotic cells at 5 uM measured after 24 hrs by Annexin V-FITC/propidium iodide staining based flow cytometric analysis (reference value: 0.76%)", "format": "functional"}, "MCF7 [12]": {"test_system": "MCF7", "experiment": "Induction of apoptosis in human MCF7 cells assessed as early apoptotic cells at 15 uM measured after 24 hrs by Annexin V-FITC/propidium iodide staining based flow cytometric analysis (reference value: 2.97%)", "format": "functional"}, "MCF7 [13]": {"test_system": "MCF7", "experiment": "Induction of apoptosis in human MCF7 cells assessed as early apoptotic cells at 10 uM measured after 24 hrs by Annexin V-FITC/propidium iodide staining based flow cytometric analysis (reference value: 2.97%)", "format": "functional"}, "MCF7 [14]": {"test_system": "MCF7", "experiment": "Induction of apoptosis in human MCF7 cells assessed as early apoptotic cells at 5 uM measured after 24 hrs by Annexin V-FITC/propidium iodide staining based flow cytometric analysis (reference value: 2.97%)", "format": "functional"}, "A-427 [15]": {"test_system": "A-427", "experiment": "Cell cycle arrest in human A-427 cells assessed as accumulation at G2/M phase at 6 uM measured after 24 hrs by PI staining based flow cytometry (reference value: 17.34%)", "format": "functional"}, "A-427 [16]": {"test_system": "A-427", "experiment": "Cell cycle arrest in human A-427 cells assessed as accumulation at S phase at 6 uM measured after 24 hrs by PI staining based flow cytometry (reference value: 37.30%)", "format": "functional"}, "A-427 [17]": {"test_system": "A-427", "experiment": "Cell cycle arrest in human A-427 cells assessed as accumulation at G0/G1 phase at 6 uM measured after 24 hrs by PI staining based flow cytometry (reference value: 45.36%)", "format": "functional"}, "A-427 [18]": {"test_system": "A-427", "experiment": "Cell cycle arrest in human A-427 cells assessed as accumulation at G2/M phase at 4 uM measured after 24 hrs by PI staining based flow cytometry (reference value: 17.34%)", "format": "functional"}, "A-427 [19]": {"test_system": "A-427", "experiment": "Cell cycle arrest in human A-427 cells assessed as accumulation at S phase at 4 uM measured after 24 hrs by PI staining based flow cytometry (reference value: 37.30%)", "format": "functional"}, "A-427 [20]": {"test_system": "A-427", "experiment": "Cell cycle arrest in human A-427 cells assessed as accumulation at G0/G1 phase at 4 uM measured after 24 hrs by PI staining based flow cytometry (reference value: 45.36%)", "format": "functional"}, "A-427 [21]": {"test_system": "A-427", "experiment": "Cell cycle arrest in human A-427 cells assessed as accumulation at G2/M phase at 2 uM measured after 24 hrs by PI staining based flow cytometry (reference value: 17.34%)", "format": "functional"}, "A-427 [22]": {"test_system": "A-427", "experiment": "Cell cycle arrest in human A-427 cells assessed as accumulation at S phase at 2 uM measured after 24 hrs by PI staining based flow cytometry (reference value: 37.30%)", "format": "functional"}, "A-427 [23]": {"test_system": "A-427", "experiment": "Cell cycle arrest in human A-427 cells assessed as accumulation at G0/G1 phase at 2 uM measured after 24 hrs by PI staining based flow cytometry (reference value: 45.36%)", "format": "functional"}, "MCF7 [24]": {"test_system": "MCF7", "experiment": "Cell cycle arrest in human MCF7 cells assessed as accumulation at G2/M phase at 15 uM measured after 24 hrs by PI staining based flow cytometry (reference value: 14.79%)", "format": "functional"}, "MCF7 [25]": {"test_system": "MCF7", "experiment": "Cell cycle arrest in human MCF7 cells assessed as accumulation at S phase at 15 uM measured after 24 hrs by PI staining based flow cytometry (reference value: 22.83%)", "format": "functional"}, "MCF7 [26]": {"test_system": "MCF7", "experiment": "Cell cycle arrest in human MCF7 cells assessed as accumulation at G0/G1 phase at 15 uM measured after 24 hrs by PI staining based flow cytometry (reference value: 62.38%)", "format": "functional"}, "MCF7 [27]": {"test_system": "MCF7", "experiment": "Cell cycle arrest in human MCF7 cells assessed as accumulation at G2/M phase at 10 uM measured after 24 hrs by PI staining based flow cytometry (reference value: 14.79%)", "format": "functional"}, "MCF7 [28]": {"test_system": "MCF7", "experiment": "Cell cycle arrest in human MCF7 cells assessed as accumulation at S phase at 10 uM measured after 24 hrs by PI staining based flow cytometry (reference value: 22.83%", "format": "functional"}, "MCF7 [29]": {"test_system": "MCF7", "experiment": "Cell cycle arrest in human MCF7 cells assessed as accumulation at G0/G1 phase at 10 uM measured after 24 hrs by PI staining based flow cytometry (reference value: 62.38%)", "format": "functional"}, "MCF7 [30]": {"test_system": "MCF7", "experiment": "Cell cycle arrest in human MCF7 cells assessed as accumulation at G2/M phase at 5 uM measured after 24 hrs by PI staining based flow cytometry (reference value: 14.79%)", "format": "functional"}, "MCF7 [31]": {"test_system": "MCF7", "experiment": "Cell cycle arrest in human MCF7 cells assessed as accumulation at S phase at 5 uM measured after 24 hrs by PI staining based flow cytometry (reference value: 22.83%)", "format": "functional"}, "MCF7 [32]": {"test_system": "MCF7", "experiment": "Cell cycle arrest in human MCF7 cells assessed as accumulation at G0/G1 phase at 5 uM measured after 24 hrs by PI staining based flow cytometry (reference value: 62.38%)", "format": "functional"}}, "data": [{"smiles": "CC1=C[C@@H]2/C=C/C[C@H](C)CC(=O)/C=C/C(=O)[C@]23C(=O)N[C@@H](Cc2c[nH]c4ccccc24)[C@@H]3[C@@H]1C", "values": [{"measurement": "IC50", "setting": "A549", "result": 9.5, "unit": "µM"}, {"measurement": "IC50", "setting": "A-427 [1]", "result": 4.8, "unit": "µM"}, {"measurement": "IC50", "setting": "HCT-116", "result": 12.2, "unit": "µM"}, {"measurement": "IC50", "setting": "HT-29", "result": 8.9, "unit": "µM"}, {"measurement": "IC50", "setting": "MCF7 [2]", "result": 6.5, "unit": "µM"}, {"measurement": "IC50", "setting": "HeLa", "result": 8.6, "unit": "µM"}, {"measurement": "IC50", "setting": "HepG2", "result": 9.1, "unit": "µM"}, {"measurement": "IC50", "setting": "L02", "result": 36.3, "unit": "µM"}, {"measurement": "Activity", "setting": "A-427 [3]", "result": 29.64, "unit": "%"}, {"measurement": "Activity", "setting": "A-427 [4]", "result": 25.77, "unit": "%"}, {"measurement": "Activity", "setting": "A-427 [5]", "result": 14.29, "unit": "%"}, {"measurement": "Activity", "setting": "A-427 [6]", "result": 24.44, "unit": "%"}, {"measurement": "Activity", "setting": "A-427 [7]", "result": 19.74, "unit": "%"}, {"measurement": "Activity", "setting": "A-427 [8]", "result": 8.26, "unit": "%"}, {"measurement": "Activity", "setting": "MCF7 [9]", "result": 13.22, "unit": "%"}, {"measurement": "Activity", "setting": "MCF7 [10]", "result": 6.99, "unit": "%"}, {"measurement": "Activity", "setting": "MCF7 [11]", "result": 5.79, "unit": "%"}, {"measurement": "Activity", "setting": "MCF7 [12]", "result": 32.79, "unit": "%"}, {"measurement": "Activity", "setting": "MCF7 [13]", "result": 19.17, "unit": "%"}, {"measurement": "Activity", "setting": "MCF7 [14]", "result": 11.22, "unit": "%"}, {"measurement": "Activity", "setting": "A-427 [15]", "result": 49.58, "unit": "%"}, {"measurement": "Activity", "setting": "A-427 [16]", "result": 16.51, "unit": "%"}, {"measurement": "Activity", "setting": "A-427 [17]", "result": 33.91, "unit": "%"}, {"measurement": "Activity", "setting": "A-427 [18]", "result": 47.21, "unit": "%"}, {"measurement": "Activity", "setting": "A-427 [19]", "result": 16.28, "unit": "%"}, {"measurement": "Activity", "setting": "A-427 [20]", "result": 36.51, "unit": "%"}, {"measurement": "Activity", "setting": "A-427 [21]", "result": 36.13, "unit": "%"}, {"measurement": "Activity", "setting": "A-427 [22]", "result": 19.88, "unit": "%"}, {"measurement": "Activity", "setting": "A-427 [23]", "result": 43.99, "unit": "%"}, {"measurement": "Activity", "setting": "MCF7 [24]", "result": 55.69, "unit": "%"}, {"measurement": "Activity", "setting": "MCF7 [25]", "result": 8.11, "unit": "%"}, {"measurement": "Activity", "setting": "MCF7 [26]", "result": 36.2, "unit": "%"}, {"measurement": "Activity", "setting": "MCF7 [27]", "result": 51.9, "unit": "%"}, {"measurement": "Activity", "setting": "MCF7 [28]", "result": 7.12, "unit": "%"}, {"measurement": "Activity", "setting": "MCF7 [29]", "result": 40.98, "unit": "%"}, {"measurement": "Activity", "setting": "MCF7 [30]", "result": 42.67, "unit": "%"}, {"measurement": "Activity", "setting": "MCF7 [31]", "result": 8.32, "unit": "%"}, {"measurement": "Activity", "setting": "MCF7 [32]", "result": 49.01, "unit": "%"}]}]}
